# Where two headings read alike, the source gives them in different places.
# What was measured:
# [1] = tested on: p21 induction in HCT116 cells; assay: p21 induction in HCT116 cells; type: cell-based; conditions: read-out: P21_EC50
# How it was run: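 EC50 from non-linear curve fit of p21 immunofluorescence (800 nm), with GAPDH (700 nm) read alongside. DMSO and a reference WRN inhibitor served as low and high controls. Cells (2,000/well) got 11 compound concentrations in duplicate for 24 h at 37 °C.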
# [2] = target: WRN (BV08), human Werner helicase (Uniprot Q14191, amino acids 517-1235 with L1074F point mutation) (Homo sapiens (Human), UniProt Q14191, L1074F); assay: WRN (BV08) ADP-Glo assay; type: biochemical; conditions: class symbols A-E, read-out: ADP-Glo_hWRN_IC50
# Sequence of WRN (BV08), human Werner helicase (Uniprot Q14191, amino acids 517-1235 with L1074F point mutation) (Q14191 other isoform, or with tags, fused parts or gaps L1074F (already in the parent)): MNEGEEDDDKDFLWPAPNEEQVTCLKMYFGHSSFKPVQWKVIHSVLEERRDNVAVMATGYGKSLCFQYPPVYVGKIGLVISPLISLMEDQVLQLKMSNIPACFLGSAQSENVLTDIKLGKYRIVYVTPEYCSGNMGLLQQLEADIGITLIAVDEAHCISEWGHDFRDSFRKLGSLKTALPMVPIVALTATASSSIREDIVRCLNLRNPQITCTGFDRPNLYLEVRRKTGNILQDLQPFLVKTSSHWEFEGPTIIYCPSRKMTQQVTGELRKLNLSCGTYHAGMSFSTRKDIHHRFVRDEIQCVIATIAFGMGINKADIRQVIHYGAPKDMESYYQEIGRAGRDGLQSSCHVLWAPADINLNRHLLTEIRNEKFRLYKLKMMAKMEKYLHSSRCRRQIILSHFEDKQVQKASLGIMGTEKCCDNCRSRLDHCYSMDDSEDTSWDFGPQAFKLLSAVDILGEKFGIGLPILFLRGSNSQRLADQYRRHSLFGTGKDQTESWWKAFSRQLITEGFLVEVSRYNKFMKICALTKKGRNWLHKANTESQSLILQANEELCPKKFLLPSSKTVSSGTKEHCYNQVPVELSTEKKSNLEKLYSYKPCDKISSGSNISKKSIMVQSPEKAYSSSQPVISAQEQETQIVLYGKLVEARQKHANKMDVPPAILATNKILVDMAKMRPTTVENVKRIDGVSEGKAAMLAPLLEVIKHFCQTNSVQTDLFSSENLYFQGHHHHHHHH
# [3] = Homo sapiens, HCT-116, 24 h, HCT116 cells, 24 h compound incubation
# [4] = HCT116 cells, 24 h compound incubation
Structure (SMILES),"EC50 [1, 3] [nM]",IC50 [2] [nM],"EC50 [1, 4] [nM]","EC50 ([1]; Homo sapiens, HCT-116, 24 h) [nM]"
"CCc1c(N2CCN(C(=O)c3ncnc(C)c3O)[C@@H](C)[C@@H]2C)c(=O)c2nc(N(C)C)cnc2n1CC(=O)Nc1ccc(C(F)(F)F)cc1Cl (single isomer, unassigned) [I-234, N-(2-chloro-4-(trifluoromethyl)phenyl)-2-(2-(dimethylamino)-6-ethyl-7-(4-(5-hydroxy-6-methylpyrimidine-4-carbonyl)-2,3-dimethylpiperazin-1-yl)-8-oxopyrido[2,3-b]pyrazin-5(8H)-yl)acetamide]",500 to 2000,5 to 50,–,–
"CCc1c(N2CCN(C(=O)c3c(OC)ncc(C)c3O)[C@H]3CCC[C@H]32)c(=O)c2nc(N(C)C)cnc2n1CC(=O)Nc1ccc(C(F)(F)F)cc1Cl (single isomer, unassigned) [I-252, N-(2-chloro-4-(trifluoromethyl)phenyl)-2-(2-(dimethylamino)-6-ethyl-7-(4-(4-hydroxy-2-methoxy-5-methylnicotinoyl)octahydro-1H-cyclopenta[b]pyrazin-1-yl)-8-oxopyrido[2,3-b]pyrazin-5(8H)-yl)acetamide]",2000 to 5000,100 to 500,–,–
"CCc1c(N2C[C@H]3C[C@@H]2CN3C(=O)c2ncnc(C)c2O)c(=O)c2nc(N(C)C)cnc2n1CC(=O)Nc1ccc(C(F)(F)F)cc1Cl (single isomer, unassigned) [I-256]",> 5000,100 to 500,–,–
"CCc1c(N2C[C@H]3C[C@@H]2CN3C(=O)c2ncnc(C)c2O)c(=O)c2nc(N(C)C)cnc2n1CC(=O)Nc1ccc(C(F)(F)F)cc1Cl (single isomer, unassigned) [I-257]",–,> 500,> 5000,–
"CCc1c([C@@]23CCN(C(=O)c4ncnc(C)c4O)C[C@@H]2C3)c(=O)c2nc(N(C)C)cnc2n1CC(=O)Nc1ccc(C(F)(F)F)cc1Cl (single isomer, unassigned) [I-276, N-(2-chloro-4-(trifluoromethyl)phenyl)-2-(2-(dimethylamino)-6-ethyl-7-(3-(5-hydroxy-6-methylpyrimidine-4-carbonyl)-3-azabicyclo[4.1.0]heptan-6-yl)-8-oxopyrido[2,3-b]pyrazin-5(8H)-yl)acetamide]",500 to 2000,5 to 50,–,–
"CCc1c([C@]23CCN(C(=O)c4ncnc(C)c4O)C[C@H]2C3)c(=O)c2nc(N(C)C)cnc2n1CC(=O)Nc1ccc(C(F)(F)F)cc1Cl (single isomer, unassigned) [I-277, N-(2-chloro-4-(trifluoromethyl)phenyl)-2-(2-(dimethylamino)-6-ethyl-7-(3-(5-hydroxy-6-methylpyrimidine-4-carbonyl)-3-azabicyclo[4.1.0]heptan-6-yl)-8-oxopyrido[2,3-b]pyrazin-5(8H)-yl)acetamide]",500 to 2000,5 to 50,–,–
"CCc1c(N2CCN(C(=O)c3ncnc(C)c3O)C3COCC32)c(=O)c2nc(N(C)C)cnc2n1CC(=O)Nc1ccc(C(F)(F)F)cc1Cl (single isomer, unassigned) [I-279, N-(2-chloro-4-(trifluoromethyl)phenyl)-2-(2-(dimethylamino)-6-ethyl-7-(4-(5-hydroxy-6-methylpyrimidine-4-carbonyl)hexahydrofuro[3,4-b]pyrazin-1(2H)-yl)-8-oxopyrido[2,3-b]pyrazin-5(8H)-yl)acetamide]",–,100 to 500,> 5000,–
"CCc1c(N2CCN(C(=O)c3ncnc(C)c3O)[C@@H]3CC(F)(F)C[C@H]32)c(=O)c2nc(N(C)C)cnc2n1CC(=O)Nc1ccc(C(F)(F)F)cc1Cl (single isomer, unassigned) [I-297, N-(2-chloro-4-(trifluoromethyl)phenyl)-2-(7-(6,6-difluoro-4-(5-hydroxy-6-methylpyrimidine-4-carbonyl)octahydro-1H-cyclopenta[b]pyrazin-1-yl)-2-(dimethylamino)-6-ethyl-8-oxopyrido[2,3-b]pyrazin-5(8H)-yl)acetamide]",> 5000,100 to 500,–,–
"CCc1c(N2CCN(C(=O)c3ncnc(C)c3O)CC2)c(=O)c2ncc(C)nc2n1CC(=O)Nc1ccc(C(F)(F)F)cc1Cl [I-1, N-(2-chloro-4-(trifluoromethyl)phenyl)-2-(6-ethyl-7-(4-(5-hydroxy-6-methylpyrimidine-4-carbonyl)piperazin-1-yl)-3-methyl-8-oxopyrido[2,3-b]pyrazin-5(8H)-yl)acetamide]",–,5 to 50,–,2000 to 5000

# Continued, in another order:
"EC50 [1, 3] [nM]",IC50 [2] [nM],"EC50 [1, 4] [nM]",Structure (SMILES),"EC50 ([1]; Homo sapiens, HCT-116, 24 h) [nM]"
> 5000,5 to 50,–,"CCc1c(N2CCN(C(=O)c3ncnc(C)c3O)[C@H](C)[C@H]2C)c(=O)c2nc(N(C)C)cnc2n1CC(=O)Nc1ccc(C(F)(F)F)cc1Cl (single isomer, unassigned) [I-233, N-(2-chloro-4-(trifluoromethyl)phenyl)-2-(2-(dimethylamino)-6-ethyl-7-(4-(5-hydroxy-6-methylpyrimidine-4-carbonyl)-2,3-dimethylpiperazin-1-yl)-8-oxopyrido[2,3-b]pyrazin-5(8H)-yl)acetamide]",–
> 5000,5 to 50,–,"CCc1c(N2CCN(C(=O)c3ncnc(C)c3O)CC2)c(=O)c2nc([C@H]3CC3(F)F)cnc2n1CC(=O)Nc1ccc(C(F)(F)F)cc1Cl (single isomer, unassigned) [I-238]",–
> 5000,100 to 500,–,"CCc1c(N2C[C@@H]3CC[C@H]2CN3C(=O)c2ncnc(C)c2O)c(=O)c2nc(N(C)C)cnc2n1CC(=O)Nc1ccc(C(F)(F)F)cc1Cl (single isomer, unassigned) [I-247, N-(2-chloro-4-(trifluoromethyl)phenyl)-2-(2-(dimethylamino)-6-ethyl-7-(5-(5-hydroxy-6-methylpyrimidine-4-carbonyl)-2,5-diazabicyclo[2.2.2]octan-2-yl)-8-oxopyrido[2,3-b]pyrazin-5(8H)-yl)acetamide]",–
< 500,5 to 50,–,"CCc1c(N2CCN(C(=O)c3c(OC)ncc(C)c3O)[C@@H]3CCC[C@@H]32)c(=O)c2nc(N(C)C)cnc2n1CC(=O)Nc1ccc(C(F)(F)F)cc1Cl (single isomer, unassigned) [I-251, N-(2-chloro-4-(trifluoromethyl)phenyl)-2-(2-(dimethylamino)-6-ethyl-7-(4-(4-hydroxy-2-methoxy-5-methylnicotinoyl)octahydro-1H-cyclopenta[b]pyrazin-1-yl)-8-oxopyrido[2,3-b]pyrazin-5(8H)-yl)acetamide]",–
–,5 to 50,2000 to 5000,"CCc1c(N2CCN(C(=O)c3ncnc(C)c3O)C3COCC32)c(=O)c2nc(N(C)C)cnc2n1CC(=O)Nc1ccc(C(F)(F)F)cc1Cl (single isomer, unassigned) [I-278, N-(2-chloro-4-(trifluoromethyl)phenyl)-2-(2-(dimethylamino)-6-ethyl-7-(4-(5-hydroxy-6-methylpyrimidine-4-carbonyl)hexahydrofuro[3,4-b]pyrazin-1(2H)-yl)-8-oxopyrido[2,3-b]pyrazin-5(8H)-yl)acetamide]",–
–,> 500,> 5000,"CCc1c(N2CCN(C(=O)c3ncnc(C)c3O)C3COCC32)c(=O)c2nc(N(C)C)cnc2n1CC(=O)Nc1ccc(C(F)(F)F)cc1Cl (single isomer, unassigned) [I-294, N-(2-chloro-4-(trifluoromethyl)phenyl)-2-(2-(dimethylamino)-6-ethyl-7-(4-(5-hydroxy-6-methylpyrimidine-4-carbonyl)hexahydrofuro[3,4-b]pyrazin-1(2H)-yl)-8-oxopyrido[2,3-b]pyrazin-5(8H)-yl)acetamide]",–
500 to 2000,5 to 50,–,"CCc1c(N2CCN(C(=O)c3ncnc(C)c3O)[C@H]3CC(F)(F)C[C@@H]32)c(=O)c2nc(N(C)C)cnc2n1CC(=O)Nc1ccc(C(F)(F)F)cc1Cl (single isomer, unassigned) [I-296, N-(2-chloro-4-(trifluoromethyl)phenyl)-2-(7-(6,6-difluoro-4-(5-hydroxy-6-methylpyrimidine-4-carbonyl)octahydro-1H-cyclopenta[b]pyrazin-1-yl)-2-(dimethylamino)-6-ethyl-8-oxopyrido[2,3-b]pyrazin-5(8H)-yl)acetamide]",–
> 5000,50 to 100,–,"CCc1c(N2CCN(C(=O)c3ncnc(C)c3O)[C@@H](COC)C2)c(=O)c2nc(N(C)C)cnc2n1CC(=O)Nc1ccc(C(F)(F)F)cc1Cl (single isomer, unassigned) [I-303, N-(2-chloro-4-(trifluoromethyl)phenyl)-2-(2-(dimethylamino)-6-ethyl-7-(4-(5-hydroxy-6-methylpyrimidine-4-carbonyl)-3-(methoxymethyl)piperazin-1-yl)-8-oxopyrido[2,3-b]pyrazin-5(8H)-yl)acetamide]",–
> 5000,5 to 50,–,"CCc1c(N2CCN(C(=O)c3ncnc(C)c3O)CC2)c(=O)c2nc(C3CC3(F)F)cnc2n1CC(=O)Nc1ccc(C(F)(F)F)cc1Cl (stereo in doubt) [I-237, N-[2-chloro-4-(trifluoromethyl)phenyl]-2-{2-[(1R)-2,2-difluorocyclopropyl]-6-ethyl-7-[4-(5-hydroxy-6-methylpyrimidine-4-carbonyl)piperazin-1-yl]-8-oxo-5H,8H-pyrido[2,3-b]pyrazin-5-yl}acetamide]",–
> 5000,50 to 100,–,"CCc1c(N2CCN(C(=O)c3cnn(C)c3)CC2)c(=O)c2ncc(C)nc2n1CC(=O)Nc1ccc(C(F)(F)F)cc1Cl [I-2, N-(2-chloro-4-(trifluoromethyl)phenyl)-2-(6-ethyl-3-methyl-7-(4-(1-methyl-1H-pyrazole-4-carbonyl)piperazin-1-yl)-8-oxopyrido[2,3-b]pyrazin-5(8H)-yl)acetamide]",–
> 5000,5 to 50,–,"CCc1c(N2CCN(C(=O)c3ncccc3O)CC2)c(=O)c2ncc(C)nc2n1CC(=O)Nc1ccc(C(F)(F)F)cc1Cl [I-3, N-(2-chloro-4-(trifluoromethyl)phenyl)-2-(6-ethyl-7-(4-(3-hydroxypicolinoyl)piperazin-1-yl)-3-methyl-8-oxopyrido[2,3-b]pyrazin-5(8H)-yl)acetamide]",–
